Measurements as given in patent US11684607B2, “Secnidazole for use in the treatment of bacterial vaginosis” (priority 2014, dated 2023).
Where two headings read alike, the source gives them in different places.

Experiment: Effect of a single 2 g dose of SYM-1219 on the plasma pharmacokinetics of EE2 and NET in healthy female subjects
Format: in vivo, human
Experimental: Methods: Fifty-four (54) healthy female subjects, ages 18-65, received EE2/NET alone and in combination, where SYM-1219+EE2/NET were co-administered on Day 1 (Group B1; N=27) or SYM-1219 on Day 1 and EE2/NET on Day 2 (Group B2; N=27). Serial blood samples were drawn to measure plasma concentrations of EE2/NET. […] Safety was evaluated by recording of adverse events, vital signs, ECGs and standard laboratory tests.

[1] = EE2/NET administered 1 day after SYM-1219
[2] = Group B1: Period 2 (EE2/NET followed by SYM-1219 2 grams on Day 1) vs Period 1 (EE2/NET alone)
[3] = Group B1 Period 1: EE2/NET alone
[4] = Group B1 Period 2: EE2/NET followed by SYM-1219 2 grams on Day 1
[5] = Group B2: Period 2 (SYM-1219 2 grams on Day 1, EE2/NET on Day 2) vs Period 1 (EE2/NET alone)
[6] = Group B2: SYM-1219 2 g on Day 1, EE2/NET on Day 2
[7] = Group B2 Period 1: EE2/NET alone
[8] = Group B2 Period 2: SYM-1219 2 grams on Day 1, EE2/NET on Day 2

## C#C[C@]1(O)CC[C@H]2[C@@H]3CCC4=CC(=O)CC[C@@H]4[C@H]3CC[C@@]21C [NET, norethindrone]
[1]
  NET Cmax, AUC0-t or AUC0-∞ increase: 9-16%
  NET upper value of the 90% CI for Cmax: 131%
[2]
  NET AUC0-t, Geometric LSMean % Ratio (100 * Test/Reference): 115.52%
  NET AUC0-∞, Geometric LSMean % Ratio (100 * Test/Reference): 116.27%
  NET Cmax, Geometric LSMean % Ratio (100 * Test/Reference): 113.18%
Group B1: SYM-1219 2 g and EE2/NET co-administered on Day 1
  NET Cmax and AUC increase: 13%
[3]
  NET λz, Mean: 0.07709 h⁻¹
  NET λz, Median: 0.07966 h⁻¹
[4]
  NET λz, Mean: 0.07886 h⁻¹
  NET λz, Median: 0.07642 h⁻¹
[5]
  NET AUC0-t, Geometric LSMean % Ratio (100 * Test/Reference): 110.78%
  NET AUC0-∞, Geometric LSMean % Ratio (100 * Test/Reference): 108.75%
  NET Cmax, Geometric LSMean % Ratio (100 * Test/Reference): 116.46%
[6]
  NET Cmax increase: 16%
  change in NET AUC: no change
[7]
  NET λz, Mean: 0.07369 h⁻¹
  NET λz, Median: 0.07458 h⁻¹
[8]
  NET Cmax, Mean: 10.6 ng/mL
  NET λz, Mean: 0.07685 h⁻¹
  NET λz, Median: 0.07539 h⁻¹
SYM-1219 administered immediately after EE2/NET
  NET Cmax, AUC0-t or AUC0-∞ increase: 13-16%
female, human, plasma, Group B1 Period 1: EE2/NET alone, read-out: NET AUC0-t, Geometric LSMeans
  AUC(0-t): 42.2 ng·h/mL
female, human, plasma, Group B1 Period 1: EE2/NET alone, read-out: NET AUC0-t, Mean
  AUC(0-t): 49.4 ng·h/mL
female, human, plasma, Group B1 Period 1: EE2/NET alone, read-out: NET AUC0-t, Median
  AUC(0-t): 38.7 ng·h/mL
female, human, plasma, Group B1 Period 1: EE2/NET alone, read-out: NET AUC0-∞, Geometric LSMeans
  AUC(0-inf): 48.5 ng·h/mL
female, human, plasma, Group B1 Period 1: EE2/NET alone, read-out: NET AUC0-∞, Mean
  AUC(0-inf): 57.8 ng·h/mL
female, human, plasma, Group B1 Period 1: EE2/NET alone, read-out: NET AUC0-∞, Median
  AUC(0-inf): 45.3 ng·h/mL
female, human, plasma, Group B1 Period 1: EE2/NET alone, read-out: NET Cmax, Geometric LSMeans
  Cmax: 8.09 ng/mL
female, human, plasma, Group B1 Period 1: EE2/NET alone, read-out: NET Cmax, Mean
  Cmax: 9.18 ng/mL
female, human, plasma, Group B1 Period 1: EE2/NET alone, read-out: NET Cmax, Median
  Cmax: 8 ng/mL
female, human, plasma, Group B1 Period 1: EE2/NET alone, read-out: NET Tmax, Median
  Tmax: 1 h
female, human, plasma, Group B1 Period 1: EE2/NET alone, read-out: NET t1/2, Mean (converted)
  half-life: 9.6 h
female, human, plasma, Group B1 Period 1: EE2/NET alone, read-out: NET t1/2, Median (converted)
  half-life: 8.71 h
female, human, plasma, Group B1 Period 2: EE2/NET followed by SYM-1219 2 grams on Day 1, read-out: NET AUC0-t, Geometric LSMeans
  AUC(0-t): 48.7 ng·h/mL
female, human, plasma, Group B1 Period 2: EE2/NET followed by SYM-1219 2 grams on Day 1, read-out: NET AUC0-t, Mean
  AUC(0-t): 53.5 ng·h/mL
female, human, plasma, Group B1 Period 2: EE2/NET followed by SYM-1219 2 grams on Day 1, read-out: NET AUC0-t, Median
  AUC(0-t): 48.9 ng·h/mL
female, human, plasma, Group B1 Period 2: EE2/NET followed by SYM-1219 2 grams on Day 1, read-out: NET AUC0-∞, Geometric LSMeans
  AUC(0-inf): 56.4 ng·h/mL
female, human, plasma, Group B1 Period 2: EE2/NET followed by SYM-1219 2 grams on Day 1, read-out: NET AUC0-∞, Mean
  AUC(0-inf): 62.4 ng·h/mL
female, human, plasma, Group B1 Period 2: EE2/NET followed by SYM-1219 2 grams on Day 1, read-out: NET AUC0-∞, Median
  AUC(0-inf): 54.3 ng·h/mL
female, human, plasma, Group B1 Period 2: EE2/NET followed by SYM-1219 2 grams on Day 1, read-out: NET Cmax, Geometric LSMeans
  Cmax: 9.16 ng/mL
female, human, plasma, Group B1 Period 2: EE2/NET followed by SYM-1219 2 grams on Day 1, read-out: NET Cmax, Mean
  Cmax: 10.1 ng/mL
female, human, plasma, Group B1 Period 2: EE2/NET followed by SYM-1219 2 grams on Day 1, read-out: NET Cmax, Median
  Cmax: 9.45 ng/mL
female, human, plasma, Group B1 Period 2: EE2/NET followed by SYM-1219 2 grams on Day 1, read-out: NET t1/2, Mean (converted)
  half-life: 9.6 h
female, human, plasma, Group B1 Period 2: EE2/NET followed by SYM-1219 2 grams on Day 1, read-out: NET t1/2, Median (converted)
  half-life: 9.12 h
female, human, plasma, Group B2 Period 1: EE2/NET alone, read-out: NET AUC0-t, Geometric LSMeans
  AUC(0-t): 46.9 ng·h/mL
female, human, plasma, Group B2 Period 1: EE2/NET alone, read-out: NET AUC0-t, Mean
  AUC(0-t): 61.4 ng·h/mL
female, human, plasma, Group B2 Period 1: EE2/NET alone, read-out: NET AUC0-t, Median
  AUC(0-t): 41.7 ng·h/mL
female, human, plasma, Group B2 Period 1: EE2/NET alone, read-out: NET AUC0-∞, Geometric LSMeans
  AUC(0-inf): 55.1 ng·h/mL
female, human, plasma, Group B2 Period 1: EE2/NET alone, read-out: NET AUC0-∞, Mean
  AUC(0-inf): 75 ng·h/mL
female, human, plasma, Group B2 Period 1: EE2/NET alone, read-out: NET AUC0-∞, Median
  AUC(0-inf): 47.4 ng·h/mL
female, human, plasma, Group B2 Period 1: EE2/NET alone, read-out: NET Cmax, Geometric LSMeans
  Cmax: 8.36 ng/mL
female, human, plasma, Group B2 Period 1: EE2/NET alone, read-out: NET Cmax, Mean
  Cmax: 9.63 ng/mL
female, human, plasma, Group B2 Period 1: EE2/NET alone, read-out: NET Cmax, Median
  Cmax: 8.16 ng/mL
female, human, plasma, Group B2 Period 1: EE2/NET alone, read-out: NET t1/2, Mean (converted)
  half-life: 10 h
female, human, plasma, Group B2 Period 1: EE2/NET alone, read-out: NET t1/2, Median (converted)
  half-life: 9.29 h
female, human, plasma, Group B2 Period 2: SYM-1219 2 grams on Day 1, EE2/NET on Day 2, read-out: NET AUC0-t, Geometric LSMeans
  AUC(0-t): 51.9 ng·h/mL
female, human, plasma, Group B2 Period 2: SYM-1219 2 grams on Day 1, EE2/NET on Day 2, read-out: NET AUC0-t, Mean
  AUC(0-t): 61.2 ng·h/mL
female, human, plasma, Group B2 Period 2: SYM-1219 2 grams on Day 1, EE2/NET on Day 2, read-out: NET AUC0-t, Median
  AUC(0-t): 44.5 ng·h/mL
female, human, plasma, Group B2 Period 2: SYM-1219 2 grams on Day 1, EE2/NET on Day 2, read-out: NET AUC0-∞, Geometric LSMeans
  AUC(0-inf): 60 ng·h/mL
female, human, plasma, Group B2 Period 2: SYM-1219 2 grams on Day 1, EE2/NET on Day 2, read-out: NET AUC0-∞, Mean
  AUC(0-inf): 71.5 ng·h/mL
female, human, plasma, Group B2 Period 2: SYM-1219 2 grams on Day 1, EE2/NET on Day 2, read-out: NET AUC0-∞, Median
  AUC(0-inf): 51.6 ng·h/mL
female, human, plasma, Group B2 Period 2: SYM-1219 2 grams on Day 1, EE2/NET on Day 2, read-out: NET Cmax, Geometric LSMeans
  Cmax: 9.74 ng/mL
female, human, plasma, Group B2 Period 2: SYM-1219 2 grams on Day 1, EE2/NET on Day 2, read-out: NET Cmax, Mean
  Cmax: 10.7 ng/mL
female, human, plasma, Group B2 Period 2: SYM-1219 2 grams on Day 1, EE2/NET on Day 2, read-out: NET Cmax, Median
  Cmax: 9.39 ng/mL
female, human, plasma, Group B2 Period 2: SYM-1219 2 grams on Day 1, EE2/NET on Day 2, read-out: NET t1/2, Mean (converted)
  half-life: 9.51 h
female, human, plasma, Group B2 Period 2: SYM-1219 2 grams on Day 1, EE2/NET on Day 2, read-out: NET t1/2, Median (converted)
  half-life: 9.19 h
